Source: PMC11242382, “Rapid Screening of Chemical Components in Salvia miltiorrhiza with the Potential to Inhibit Skin Inflammation” (International Journal of Molecular Sciences, 2024)

Assays:
Format in all cases: biochemical
[1] = target: T1, HAase (Bos taurus, UniProt Q2YDK3); assay: HAase inhibition assay (Elson–Morgan modified method)
T1 sequence (Q2YDK3 36-553): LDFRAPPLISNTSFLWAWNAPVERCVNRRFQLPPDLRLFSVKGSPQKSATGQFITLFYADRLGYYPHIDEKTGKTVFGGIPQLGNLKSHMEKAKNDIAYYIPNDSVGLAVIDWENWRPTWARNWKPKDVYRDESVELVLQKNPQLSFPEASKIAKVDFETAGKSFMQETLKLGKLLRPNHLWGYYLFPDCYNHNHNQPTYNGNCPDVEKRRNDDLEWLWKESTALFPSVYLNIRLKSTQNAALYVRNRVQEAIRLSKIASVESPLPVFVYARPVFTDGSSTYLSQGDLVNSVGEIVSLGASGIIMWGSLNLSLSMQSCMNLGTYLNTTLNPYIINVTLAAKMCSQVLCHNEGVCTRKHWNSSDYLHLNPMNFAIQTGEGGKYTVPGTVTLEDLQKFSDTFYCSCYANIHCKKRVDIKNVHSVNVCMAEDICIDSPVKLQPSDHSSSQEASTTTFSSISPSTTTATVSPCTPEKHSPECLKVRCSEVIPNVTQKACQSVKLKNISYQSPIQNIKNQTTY
Method: The inhibition assay of the ligands against HAase was performed, following the Elson–Morgan modified method, and the working concentration of the sample was determined to be 0.5 mg/mL [35, 36, 37]. The assays took place in 10 mL centrifuge tubes. Firstly, 0.5 mL of sample solution and 0.5 mL of HAase were added (500 U/mL) to the tube in a 37 °C water bath for 20 min. Then, 0.1 mL of CaCl2 (2.5 mol/L) solution was added to the tube in a 37 °C water bath for 20 min. Next, 0.5 mL of sodium hyaluronate solution (0.5 mg/mL) was added to the tube at 37 °C in a water bath for 40 min. Afterward, we added 0.5 mL of distilled water, 0.1 mL of NaOH solution, and 0.5 mL of acetylacetone (composed of 50 mL of Na2CO3 (1 M) and 3.5 mL of acetylacetone) to the tube. This mixture was kept in the 37 °C water bath for 15 min and then transferred to an ice bath for 10 min, followed by 10 min at room temperature. Afterward, 1 mL of P-DAB and 4.3 mL of ethanol were added to it. The absorbance was measured at 530 nm after allowing the solution to stand for 30 min. […]

[2] = target: T1, HAase; assay: Combined effects of SAB and RA on HAase (median-effect equation, combination index); conditions: for Fa (%): SAB-only group
Method: The inhibition assay of the ligands against HAase was performed, following the Elson–Morgan modified method, and the working concentration of the sample was determined to be 0.5 mg/mL [35, 36, 37]. The assays took place in 10 mL centrifuge tubes. Firstly, 0.5 mL of sample solution and 0.5 mL of HAase were added (500 U/mL) to the tube in a 37 °C water bath for 20 min. Then, 0.1 mL of CaCl2 (2.5 mol/L) solution was added to the tube in a 37 °C water bath for 20 min. Next, 0.5 mL of sodium hyaluronate solution (0.5 mg/mL) was added to the tube at 37 °C in a water bath for 40 min. Afterward, we added 0.5 mL of distilled water, 0.1 mL of NaOH solution, and 0.5 mL of acetylacetone (composed of 50 mL of Na2CO3 (1 M) and 3.5 mL of acetylacetone) to the tube. This mixture was kept in the 37 °C water bath for 15 min and then transferred to an ice bath for 10 min, followed by 10 min at room temperature. Afterward, 1 mL of P-DAB and 4.3 mL of ethanol were added to it. The absorbance was measured at 530 nm after allowing the solution to stand for 30 min. The HAase inhibition rate (R) was calculated using the following formula:(1) R=A0−A/A0×100% where A0 is the absorbance of the control group (without the sample, enzyme solution, and sodium hyaluronate as the drug control), and A is the absorbance of the sample group (with the sample, no enzyme solution, and sodium hyaluronate as the blank control); ascorbic acid was the positive control.
The Fa value for each group is Fa (%) = R* (where R* denotes the mean value of inhibition in the administered group). Neutralization graphs (y = log Fa/Fu, x = logD, and y = ax + b) and the neutralization of the two components in monotherapy and combination were calculated based on the neutralization equation Fa/Fu = (D/Dm)^m. In this equation, Fa is the drug effect, Fu = 1 − Fa, D is the drug concentration, Dm is the neutralization concentration, that is, the concentration of the drug when it exerts 50% of its effect, and m is the slope of the equation of the neutralization curve. Dose was calculated using (logDm = −b/a, a = m) and the corresponding parameters of the equation (slope m and correlation coefficient r, etc.). Then, the CI value of the combined effect was calculated according to the following formula:(2) CI=D1/Dx1+D2/Dx2 where D1 and D2 are the concentrations of each of the two drugs causing the x effect when combined, and Dx1 and Dx2 are the concentrations of each of the two drugs causing the x effect when used alone. […] The quantitative effect-relationship curves of the two drugs individually and after combination were plotted using GraphPad Prism V5.0, with the drug concentration as the horizontal coordinate and the Fa value as the vertical coordinate. The data of the combined action group were simulated using Compusyn V1.0 and the neutral effect equation. The Fa-CI curves were plotted using GraphPad Prism V5.0, with the simulated Fa on the horizontal axis and its corresponding CI value on the vertical axis. This comprehensive analysis aimed to thoroughly evaluate the effects of the 2 drugs following their combined action, based on the provided data.

[3] = target: T1, HAase; assay: Enzyme kinetics study (Lineweaver–Burk plots); conditions: for type of HAase inhibition: Lineweaver–Burk plots; for Kis: from Y-intercept of double inverse curve vs inhibitor concentration
Method: We conducted enzyme kinetic studies to explore the inhibitory patterns of the ligands of HAase, employing a method that was previously documented. Based on the earlier HAase inhibition assay, 5 different concentrations of ligands (0, 1/2 × IC50, 1 × IC50, 3/2 × IC50, and 2 × IC50) were reacted with 5 different concentrations of sodium hyaluronate (500, 750, 1000, 1250, and 1500 µM). The reaction rate was monitored within the initial 30 min post-initiation. Grouping the samples by concentration, we derived the corresponding regression equations to construct the Lineweaver–Burk diagram, with the reciprocal of the average reaction rate (1/V) on the ordinate and the reciprocal of the substrate concentration (1/[S]) on the abscissa. From this diagram, we extracted the reciprocal of the transverse intercept (Km) and longitudinal intercept (Vmax) to compute the values of the constants Ki and Kis.

Row | Compound | IC50 against HAase [1] [µg/mL] | Inhibition Rate (%) against HAase ([1]; sample concentration 0.5 mg/mL, mean ± SD (n = 3)) [%] | Fa (%) ([2]; 0.006 mg/mL) | Fa (%) ([2]; 0.03 mg/mL) | Fa (%) ([2]; 0.06 mg/mL) | Fa (%) ([2]; 0.15 mg/mL) | Fa (%) ([2]; 0.3 mg/mL) | m (slope of the neutralization curve equation) ([2]; median-effect equation) | Dm (median effective concentration) ([2]; median-effect equation, concentration at 50% of effect) [mg/mL] | type of HAase inhibition [3] | Kis [3] [µM]
1 | salvianolic acid B [SAB] | 204.15 ± 1.08 | 68.27 ± 0.71 | 8.30 | 18.07 | 22.16 | 40.98 | 59.08 | 0.6928 | 0.2424 | mixed-type inhibitors | 0.96
2 | O=C(/C=C/c1ccc(O)c(O)c1)O[C@H](Cc1ccc(O)c(O)c1)C(=O)O [RA, rosmarinic acid] |  |  |  |  |  |  |  | 0.6904 |  | mixed-type inhibitors | 4.60
